Read-outs that look alike come from different tables or passages of the source. Positions of bridges follow the written chain, without caps; N, C: chain ends. Residues, ends and D or L forms follow the SMILES beside them.
Legend:
[1] = test system: formalin pain model in male CD-1 mice; settings: in vivo
[2] = test system: locomotor activity in male CD-1 mice; settings: 5 mg/kg s.c.
[3] = molecular target: T1, hNav1.3 (Homo sapiens, UniProt Q9NY46); assay: cell-based; settings: IonWorks Quattro, read-out: IWQ Use Nav1.3
[4] = molecular target: T2, hNav1.5 (Homo sapiens, UniProt Q14524); assay: cell-based
[5] = mouse plasma, 37° C.
[6] = human plasma, 37° C.
[7] = molecular target: T3, hNav1.7 (Homo sapiens, UniProt Q15858); assay: cell-based; assay type: cell-based; settings: IonWorks Quattro, Use; read-out: IWQ Use Nav1.7
[8] = in vitro; settings: human, plasma
[9] = molecular target: T1, hNav1.3; assay: cell-based; assay type: cell-based
[10] = in vitro; settings: mouse, plasma
[11] = molecular target: T2, hNav1.5; assay: cell-based; remark: listed apart in the source
[12] = molecular target: hNav1.4 (Homo sapiens, UniProt P35499); assay: cell-based
[13] = molecular target: T3, hNav1.7; assay: cell-based; settings: read-out: Nav1.7 Use IC50
[14] = incubation time 0 hr (normalisation point)

T2 sequence (Q14524 whole entry, looked up): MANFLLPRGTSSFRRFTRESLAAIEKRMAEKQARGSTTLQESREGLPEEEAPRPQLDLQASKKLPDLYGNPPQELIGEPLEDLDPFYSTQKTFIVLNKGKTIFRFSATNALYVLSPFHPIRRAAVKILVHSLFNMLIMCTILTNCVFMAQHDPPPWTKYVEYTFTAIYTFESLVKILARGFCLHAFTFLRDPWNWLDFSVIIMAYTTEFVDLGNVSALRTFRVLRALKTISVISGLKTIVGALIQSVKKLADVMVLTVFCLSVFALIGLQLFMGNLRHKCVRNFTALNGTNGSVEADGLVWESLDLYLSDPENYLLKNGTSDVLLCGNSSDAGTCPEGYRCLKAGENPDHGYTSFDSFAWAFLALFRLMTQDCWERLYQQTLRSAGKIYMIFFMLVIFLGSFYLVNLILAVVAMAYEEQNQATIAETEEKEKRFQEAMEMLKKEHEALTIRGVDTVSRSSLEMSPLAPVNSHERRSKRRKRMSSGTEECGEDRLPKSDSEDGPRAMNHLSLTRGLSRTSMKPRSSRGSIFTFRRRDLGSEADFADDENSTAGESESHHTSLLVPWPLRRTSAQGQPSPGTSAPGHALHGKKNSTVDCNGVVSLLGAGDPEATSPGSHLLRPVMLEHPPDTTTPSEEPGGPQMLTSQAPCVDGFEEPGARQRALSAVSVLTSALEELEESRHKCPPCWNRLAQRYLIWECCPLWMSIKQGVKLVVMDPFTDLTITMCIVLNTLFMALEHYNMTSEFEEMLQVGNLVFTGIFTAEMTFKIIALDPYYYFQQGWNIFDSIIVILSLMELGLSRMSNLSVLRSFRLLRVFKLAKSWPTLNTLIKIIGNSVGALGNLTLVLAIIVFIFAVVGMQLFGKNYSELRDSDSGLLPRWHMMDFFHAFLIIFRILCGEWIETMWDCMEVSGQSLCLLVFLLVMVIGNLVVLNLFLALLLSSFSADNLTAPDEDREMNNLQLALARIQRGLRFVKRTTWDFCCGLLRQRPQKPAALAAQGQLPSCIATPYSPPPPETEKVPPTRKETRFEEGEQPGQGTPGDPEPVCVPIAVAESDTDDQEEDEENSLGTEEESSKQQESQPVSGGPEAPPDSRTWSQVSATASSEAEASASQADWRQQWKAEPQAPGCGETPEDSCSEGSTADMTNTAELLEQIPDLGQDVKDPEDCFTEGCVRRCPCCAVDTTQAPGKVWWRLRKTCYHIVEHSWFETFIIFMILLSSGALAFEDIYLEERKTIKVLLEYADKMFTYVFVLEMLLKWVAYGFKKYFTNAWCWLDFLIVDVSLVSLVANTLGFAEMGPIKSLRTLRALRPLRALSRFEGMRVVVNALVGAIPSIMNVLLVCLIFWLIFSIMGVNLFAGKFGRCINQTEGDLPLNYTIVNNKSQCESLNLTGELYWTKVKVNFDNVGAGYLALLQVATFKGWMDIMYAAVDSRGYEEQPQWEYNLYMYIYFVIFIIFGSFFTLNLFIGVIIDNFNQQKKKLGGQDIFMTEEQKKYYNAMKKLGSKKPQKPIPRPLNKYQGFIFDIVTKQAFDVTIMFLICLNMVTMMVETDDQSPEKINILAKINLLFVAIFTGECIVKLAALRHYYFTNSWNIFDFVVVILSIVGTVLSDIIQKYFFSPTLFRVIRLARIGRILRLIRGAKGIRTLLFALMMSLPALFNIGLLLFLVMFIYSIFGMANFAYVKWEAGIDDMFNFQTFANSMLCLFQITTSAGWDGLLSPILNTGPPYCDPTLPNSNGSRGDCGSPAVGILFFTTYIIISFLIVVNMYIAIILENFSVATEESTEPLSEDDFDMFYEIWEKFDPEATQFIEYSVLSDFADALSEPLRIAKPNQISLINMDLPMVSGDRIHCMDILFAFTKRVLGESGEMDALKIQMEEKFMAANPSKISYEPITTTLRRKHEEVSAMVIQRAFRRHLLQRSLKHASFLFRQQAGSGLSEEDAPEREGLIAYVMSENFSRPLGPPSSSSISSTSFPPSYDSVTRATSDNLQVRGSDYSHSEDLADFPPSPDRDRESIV
Chain of hNav1.4 (P35499 whole entry, looked up): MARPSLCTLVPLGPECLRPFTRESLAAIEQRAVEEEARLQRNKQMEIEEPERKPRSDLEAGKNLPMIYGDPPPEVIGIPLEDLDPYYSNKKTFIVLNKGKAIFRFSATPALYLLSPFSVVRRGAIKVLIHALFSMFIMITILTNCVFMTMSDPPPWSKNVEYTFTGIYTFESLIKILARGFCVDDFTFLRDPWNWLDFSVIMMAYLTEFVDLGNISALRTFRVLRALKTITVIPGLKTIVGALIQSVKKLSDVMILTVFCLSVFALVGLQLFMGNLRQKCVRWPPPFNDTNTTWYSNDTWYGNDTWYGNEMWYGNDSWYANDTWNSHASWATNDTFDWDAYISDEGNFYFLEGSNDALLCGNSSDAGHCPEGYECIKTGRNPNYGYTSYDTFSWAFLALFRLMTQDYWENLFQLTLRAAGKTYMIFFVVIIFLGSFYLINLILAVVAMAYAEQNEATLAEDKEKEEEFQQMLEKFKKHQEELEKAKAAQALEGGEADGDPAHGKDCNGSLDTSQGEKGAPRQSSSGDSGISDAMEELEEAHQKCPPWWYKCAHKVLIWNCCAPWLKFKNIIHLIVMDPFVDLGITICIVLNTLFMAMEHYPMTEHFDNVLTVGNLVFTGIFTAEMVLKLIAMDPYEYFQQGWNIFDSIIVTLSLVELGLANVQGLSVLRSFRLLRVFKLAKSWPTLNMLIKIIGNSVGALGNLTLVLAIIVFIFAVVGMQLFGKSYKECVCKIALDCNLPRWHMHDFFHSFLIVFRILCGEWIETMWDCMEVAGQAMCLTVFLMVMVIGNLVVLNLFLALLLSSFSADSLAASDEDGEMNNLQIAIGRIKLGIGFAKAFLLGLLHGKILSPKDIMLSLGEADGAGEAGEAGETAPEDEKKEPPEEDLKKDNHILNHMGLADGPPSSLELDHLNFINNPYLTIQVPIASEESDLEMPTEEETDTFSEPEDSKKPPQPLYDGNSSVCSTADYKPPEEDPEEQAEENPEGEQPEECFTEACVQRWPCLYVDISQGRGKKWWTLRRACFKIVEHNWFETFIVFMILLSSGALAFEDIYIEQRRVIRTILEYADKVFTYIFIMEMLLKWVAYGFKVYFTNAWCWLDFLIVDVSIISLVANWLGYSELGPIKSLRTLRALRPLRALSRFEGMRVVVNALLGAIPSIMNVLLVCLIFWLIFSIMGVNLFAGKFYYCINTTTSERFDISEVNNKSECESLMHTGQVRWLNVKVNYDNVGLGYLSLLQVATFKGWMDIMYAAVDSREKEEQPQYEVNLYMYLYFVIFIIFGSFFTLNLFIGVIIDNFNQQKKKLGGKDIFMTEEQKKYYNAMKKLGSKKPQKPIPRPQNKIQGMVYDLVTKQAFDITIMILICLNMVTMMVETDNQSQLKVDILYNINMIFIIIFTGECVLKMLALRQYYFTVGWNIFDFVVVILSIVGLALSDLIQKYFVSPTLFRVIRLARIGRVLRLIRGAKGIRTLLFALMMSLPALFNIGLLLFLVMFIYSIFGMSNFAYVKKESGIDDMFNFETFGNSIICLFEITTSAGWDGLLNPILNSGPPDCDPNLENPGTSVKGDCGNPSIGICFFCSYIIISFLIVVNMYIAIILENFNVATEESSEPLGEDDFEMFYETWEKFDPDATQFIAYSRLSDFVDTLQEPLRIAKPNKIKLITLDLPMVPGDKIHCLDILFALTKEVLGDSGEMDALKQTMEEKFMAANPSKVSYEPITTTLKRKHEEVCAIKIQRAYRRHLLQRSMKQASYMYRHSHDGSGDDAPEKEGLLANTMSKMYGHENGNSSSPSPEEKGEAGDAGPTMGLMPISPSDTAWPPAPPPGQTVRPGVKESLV

With CC[C@H](C)[C@@H]1NC(=O)[C@@H]2CSSC[C@@H]3NC(=O)[C@H](C(C)C)NC(=O)[C@H](CC(C)C)NC(=O)[C@H](CC(N)=O)NC(=O)[C@@H]4CCCN4C(=O)[C@H](CCCNC(=N)N)NC(=O)[C@H](CSSC[C@H](NC(=O)[C@@H](N)CC(=O)O)C(=O)N[C@@H](CC(C)C)C(=O)NCC(=O)N[C@@H](Cc4ccccc4)C(=O)N[C@@H](CCSC)C(=O)N[C@@H](CCCNC(=N)N)C(=O)N[C@@H](CCCCN)C(=O)N2)NC(=O)[C@H](CSSC[C@@H](C(=O)N[C@@H](CCCCN)C(=O)N[C@@H](Cc2ccc(O)cc2)C(=O)N[C@H](C(=O)N[C@@H](Cc2ccccc2)C(N)=O)C(C)C)NC(=O)[C@H](CCC(=O)O)NC(=O)[C@H](CCCCN)NC(=O)[C@H](Cc2c[nH]cn2)NC(=O)[C@H]([C@@H](C)O)NC(=O)[C@H](CCCNC(=N)N)NC(=O)[C@H](CO)NC3=O)NC(=O)[C@H](CCCCN)NC(=O)[C@H](CC(=O)O)NC(=O)[C@H](CC(N)=O)NC(=O)[C@H](CC(=O)O)NC(=O)[C@@H]2CCCN2C1=O [SEQ ID NO: 30, [Glu29]GpTx-1(1-34)] (H-DCLGFMRKCIPDNDKCCRPNLVCSRTHKECKYVF-NH2; disulfide 2-17, 9-23, 16-30) the “time spent lifting/licking, second phase” value ([1]; mouse) was “no significant effect”.
With CC[C@H](C)[C@@H]1NC(=O)[C@@H]2CSSC[C@@H]3NC(=O)[C@H](C(C)C)NC(=O)[C@H](CC(C)C)NC(=O)[C@H](CC(N)=O)NC(=O)[C@@H]4CCCN4C(=O)[C@H](CCCNC(=N)N)NC(=O)[C@H](CSSC[C@H](NC(=O)[C@@H](N)CC(=O)O)C(=O)N[C@@H](CC(C)C)C(=O)NCC(=O)N[C@@H](Cc4ccccc4)C(=O)N[C@@H](CCSC)C(=O)N[C@@H](CCCNC(=N)N)C(=O)N[C@@H](CCCCN)C(=O)N2)NC(=O)[C@H](CSSC[C@@H](C(=O)N[C@@H](CCCCN)C(=O)N[C@@H](Cc2ccc(O)cc2)C(=O)N[C@H](C(=O)N[C@@H](Cc2ccccc2)C(N)=O)C(C)C)NC(=O)[C@H](CCC(=O)O)NC(=O)[C@H](CCCCN)NC(=O)[C@H](Cc2cnc[nH]2)NC(=O)[C@H]([C@@H](C)O)NC(=O)[C@H](CCCNC(=N)N)NC(=O)[C@H](CO)NC3=O)NC(=O)[C@H](CCCCN)NC(=O)[C@H](CC(=O)O)NC(=O)[C@H](CC(N)=O)NC(=O)[C@H](CC(=O)O)NC(=O)[C@@H]2CCCN2C1=O [SEQ ID NO: 30, [Glu29]GpTx-1(1-34)] (H-DCLGFMRKCIPDNDKCCRPNLVCSRTHKECKYVF-NH2; disulfide 2-17, 9-23, 16-30) the “terminal exposure (peptide plasma concentration at 45 min post formalin injection)” value ([1]; male, CD-1, mouse, sc, 5 mg/kg, […]) was 0.502 ± 0.271 µM, the “locomotor activity in the open field analysis” value [2] was “no significant effect” and the “terminal exposure (peptide plasma concentration at 2 h post peptide injection)” value ([2]; later studies) was 0.771 ± 0.272 µM. It also gave an IC50 ([3]; Table 24, use, […]) of 16100 nM.
In the case of CSCC[C@@H]1NC(=O)[C@H](Cc2ccccc2)NC(=O)CNC(=O)[C@H](CC(C)C)NC(=O)[C@@H](NC(=O)[C@@H](N)CC(=O)O)CSSC[C@@H]2NC(=O)[C@@H]3CSSC[C@@H](C(=O)N[C@@H](CCCCN)C(=O)N[C@@H](Cc4ccc(O)cc4)C(=O)N[C@H](C(=O)N[C@@H](Cc4ccccc4)C(N)=O)C(C)C)NC(=O)[C@H](Cc4c[nH]c5ccccc45)NC(=O)[C@H](CCCCN)NC(=O)[C@H](Cc4c[nH]cn4)NC(=O)[C@H]([C@@H](C)O)NC(=O)[C@H](CCCNC(=N)N)NC(=O)[C@H](CO)NC(=O)[C@H](CSSC[C@H](NC(=O)[C@H](CCCCN)NC(=O)[C@H](CCCNC(=N)N)NC1=O)C(=O)N[C@@H](Cc1cccc4ccccc14)C(=O)N1CCC[C@H]1C(=O)N[C@@H](CC(=O)O)C(=O)N[C@@H](CC(N)=O)C(=O)N[C@@H](CC(=O)O)C(=O)N[C@@H](CCCCN)C(=O)N3)NC(=O)[C@H](C(C)C)NC(=O)[C@H](CC(C)C)NC(=O)[C@H](CC(N)=O)NC(=O)[C@@H]1CCCN1C(=O)[C@H](CCCNC(=N)N)NC2=O [SEQ ID NO: 78, [1-Nal10]GpTx-1(1-34)], the IC50 ([4]; IWQ Use Nav1.5 (μM)) is reported as 10 µM, the “% peptide remaining” value [5, 14] is reported as 100% and the “% peptide remaining” value ([5]; incubation time 2 hr) is reported as 98%. For the same molecule, the “% peptide remaining” value ([5]; incubation time 4 hr) was 92%, the “% peptide remaining” value ([5]; incubation time 8 hr) was 92% and the “% peptide remaining” value ([5]; incubation time 24 hr) was 88%. The “% peptide remaining” value [6, 14] was 100%, the “% peptide remaining” value ([6]; incubation time 2 hr) was 99% and the “% peptide remaining” value ([6]; incubation time 4 hr) was 93%. The “% peptide remaining” value ([6]; incubation time 8 hr) was 97%, the “% peptide remaining” value ([6]; incubation time 24 hr) was 82% and the IC50 ([3]; Use) was 210 nM. The IC50 [7] was 150 nM.
In the case of CC[C@H](C)[C@@H]1NC(=O)[C@@H]2CSSC[C@@H]3NC(=O)[C@H](C(C)C)NC(=O)[C@H](CC(C)C)NC(=O)[C@H](CC(N)=O)NC(=O)[C@@H]4CCCN4C(=O)[C@H](CCCNC(=N)N)NC(=O)[C@H](CSSC[C@H](NC(=O)[C@H](CC(=O)O)NC(C)=O)C(=O)N[C@@H](CC(C)C)C(=O)NCC(=O)N[C@@H](Cc4ccccc4)C(=O)N[C@@H](CCSC)C(=O)N[C@@H](CCCNC(=N)N)C(=O)N[C@@H](CCCCN)C(=O)N2)NC(=O)[C@H](CSSC[C@@H](C(=O)N[C@@H](CCCCN)C(=O)N[C@@H](Cc2ccc(O)cc2)C(=O)N[C@H](C(=O)N[C@@H](Cc2ccccc2)C(N)=O)C(C)C)NC(=O)[C@H](Cc2c[nH]c4ccccc24)NC(=O)[C@H](CCCCN)NC(=O)[C@H](Cc2cnc[nH]2)NC(=O)[C@H]([C@@H](C)O)NC(=O)[C@H](CCCNC(=N)N)NC(=O)[C@H](CO)NC3=O)NC(=O)[C@H](CCCCN)NC(=O)[C@H](CC(=O)O)NC(=O)[C@H](CC(N)=O)NC(=O)[C@H](CC(=O)O)NC(=O)[C@@H]2CCCN2C1=O [SEQ ID NO: 132], the remaining at 2 h [8] is reported as 100%, the remaining at 4 h [8] is reported as 104% and the remaining at 8 h [8] is reported as 101%. The remaining at 24 h [8] was 97%, the IC50 ([9]; Nav1.3 Use IC50) was 84 nM and the IC50 ([4]; IWQ Use Nav1.5) was 12.7 µM. The “% peptide remaining” value [5, 14] was 100%, the remaining at 2 h [10] was 105% and the remaining at 4 h [10] was 103%. For the same molecule, the remaining at 8 h [10] was 103%, the remaining at 24 h [10] was 106% and the “% peptide remaining” value [6, 14] was 100%. For the same molecule, the IC50 ([3]; clamped to −110 mV, depolarized to −10 mV, 5 min after compound, n=2) was 220 nM.
In the case of CC[C@H](C)[C@@H]1NC(=O)[C@@H]2CSSC[C@@H]3NC(=O)[C@H](C(C)C)NC(=O)[C@H](CC(C)C)NC(=O)[C@H](CC(N)=O)NC(=O)[C@@H]4CCCN4C(=O)[C@H](CCCNC(=N)N)NC(=O)[C@H](CSSC[C@H](NC(=O)[C@@H](N)CC(=O)O)C(=O)N[C@@H](CC(C)C)C(=O)NCC(=O)N[C@@H](Cc4ccccc4)C(=O)N[C@@H](CCSC)C(=O)N[C@@H](CCCNC(=N)N)C(=O)N[C@@H](CCCCN)C(=O)N2)NC(=O)[C@H](CSSC[C@@H](C(=O)N[C@@H](CCCCN)C(=O)N[C@@H](Cc2ccc(O)cc2)C(=O)N[C@H](C(=O)N[C@@H](Cc2ccccc2)C(N)=O)C(C)C)NC(=O)[C@H](CCC(=O)O)NC(=O)[C@H](CCCCN)NC(=O)[C@H](Cc2c[nH]cn2)NC(=O)[C@H]([C@@H](C)O)NC(=O)[C@H](CCCNC(=N)N)NC(=O)[C@H](CO)NC3=O)NC(=O)[C@H](CCCCN)NC(=O)[C@H](CC(=O)O)NC(=O)[C@H](CC(N)=O)NC(=O)[C@H](CC(=O)O)NC(=O)[C@@H]2CCCN2C1=O [[Glu29]GpTx-1(1-34)] (H-DCLGFMRKCIPDNDKCCRPNLVCSRTHKECKYVF-NH2; disulfide 2-17, 9-23, 16-30), the “paw edema caused by formalin injection” value ([1]; mouse) is reported as “Neither the peptide nor the morphine control significantly reduced” and the “time spent lifting/licking, second phase” value ([1]; mouse) is reported as “did not demonstrate a significant reduction”.
In the case of CN1CC[C@]23c4c5ccc(O)c4O[C@H]2[C@@H](O)C=C[C@H]3[C@H]1C5 [morphine, reference compound], the “time spent lifting and/or licking the affected paw, first phase (0-5 minutes post formalin injection)” value ([1]; mouse) is reported as “Neither the peptide nor the morphine positive control significantly reduced”.
With “[Phe6,Atz(500 Da EtO-PEG*-{[Phe6,Atz13*]GpTx-1(1-34)})13]GpTx-1(1-34) [Homodimeric Conjugate 2]” the “Nav1.5/Nav1.3 Use” value [11] was 19, the “Nav1.5/Nav1.7 Use” value [11] was 45 and the IC50 ([11]; read-out: Nav1.5 Use IC50) was 863 nM. The “Nav1.4/Nav1.3 Use” value [12] was 7, the “Nav1.4/Nav1.7 Use” value [12] was 16 and the IC50 ([12]; read-out: Nav1.4 Use IC50) was 299 nM. For the same molecule, the IC50 [13] was 19 nM, the “Nav1.3/Nav1.7 Use” value [9] was 2.4 and the IC50 ([9]; read-out: Nav1.3 Use IC50) was 46 nM.

Reference: patent US9340590B2 (priority 2011, dated 2016)
